Values joined by “and” are separate entries in the source; they are usually repeats but may differ in a detail not shown here. Identical values can stand only once. “Also recorded” adds a separate entry of the source.
How the values were obtained:
Assay type in all cases: in vivo, mouse
[1] = test system: micronucleated cells in blood; assay: Flow cytometric micronucleus assay, list mode data, blood of MMS treated mice, per 10,000 PCEs
Description: The fixation procedure can affect the permeability of a cell, cell morphology and the amount of undesirable autofluorescence that is associated with a cell preparation. Fixing procedures can cause changes in cell structure (that are reflected in the light scatter patterns) as well as changes in the distribution of the dye molecules within the cells (resulting in altered fluorescence emission patterns). Practioners of the art are unaware that fixing the cells at ultralow temperatures circumvents these fixation problems and provides cells that are suitable for subsequent staining and FCM analysis. Initially, the cells are centrifuged in order to separate them from serum components which could aggregate when added to cold fixative. To fix cells, a fresh blood sample (25 μl) containing an anticogulant is suspended in a solution containing 1% BSA and 10% dimethylsulfoxide (DMSO) in PBS (2 ml). The cells are centrifuged at 500×g for five minutes at room temperature. The supernatant is discarded and the pellet is resuspended in the small amount of residual supernatant that remains. This cell suspension is cooled to 0° C., the cells are diluted further with cold (-70° C.) absolute methanol (2 ml) and it is incubated at -70° C. for five minutes. The cell suspension is then immediately diluted with 1% BSA in PBS (10 ml) and is centrifuged at 500×g for 5 minutes. The low temperature treatment yields fixed cells with good morphology as viewed with either inverted phase contrast microscopy or fluorescent microscopy. […] Cells fixed in this way can be stored at 0° C. for weeks with no significant deterioration and are ready for staining and MN analysis.
It is known to practioners in the art that a variety of fluorescent dyes can be used to stain the DNA and RNA of cells. […] By choosing proper concentrations of these two dyes in conjunction with 363 nm excitation wavelength, it is possible to obtain a blue fluorescence signal from the Hoechst 33258 labeled micronucleii. A red fluorescence signal can be obtained from propidium iodide labeled PCEs. […]

[2] = test system: micronucleated cells in blood; assay: Flow cytometric micronucleus assay, dual parameter data, MMS, Hoechst 33258 & propidium iodide, per 500,000 cells; settings: MMS 100 μg/g body weight IP at 0 and 48 hours
Description: The fixation procedure can affect the permeability of a cell, cell morphology and the amount of undesirable autofluorescence that is associated with a cell preparation. Fixing procedures can cause changes in cell structure (that are reflected in the light scatter patterns) as well as changes in the distribution of the dye molecules within the cells (resulting in altered fluorescence emission patterns). Practioners of the art are unaware that fixing the cells at ultralow temperatures circumvents these fixation problems and provides cells that are suitable for subsequent staining and FCM analysis. […] Cells fixed in this way can be stored at 0° C. for weeks with no significant deterioration and are ready for staining and MN analysis.
When two dyes are used for simultaneous micronucleus and PCE discrimination, the cell suspension is prepared as follows: The Hoechst 33258 working solution described above is prepared and is filtered through an 0.2 micron Acro-disk (Gilman Sciences). […] When blood from a malaria (P. berghei) infected mouse was fixed and stained by this procedure, the bivariate pattern shown in FIG. 1B resulted, in which a stronger red fluorescence signal was obtained. […] The pH of the stained solution is important for good fluorescence emission profiles and resolution of the different cell populations. […]

[3] = test system: micronucleated cells in blood; assay: Cyclophosphamide dose response, flow cytometric micronucleus assay
Experimental: However, an effective flow cytometry based micronulceus assay should also be able to reflect changes in the number of MN-cells at different doses of a clastogen. Accordingly, another example of this embodiment involves a cyclophosphamide dose response analysis. Ten mice were divided into sets of two for this experiment. An initial blood sample was taken (t=0hr) for each mouse. The two control mice were dosed with saline while the other sets received different doses of cyclophosphamide (50,100,150 or 200 μg/g body weight). Each set was treated twice, at t=0 and t=48 hrs. Final blood samples were obtained at t=96hrs, and were fixed and stained with Hoechst 33258 to which PC microspheres had been added. The position of the microsphere peak was initially calibrated using the malaria infected RBCs as the primary standard. Each sample was then checked to insure that the microsphere peak was still at the calibrated position before acquisition. Some slight adjustments were necessary in the gains during the course of the analysis, during which ten t=0 samples and ten t=96 samples were run. One million total cells were counted for each sample. Gates were set on forward scatter (e.g. FIG. 3), side scatter (before the major cell peak), and a red gate (e.g. as shown in FIG. 13). These gates insured that only red blood cells and their associated micronuclei would be acquired. Following acquisition, the number of micronucleated cells at t=0 were subtracted from the number at t=96hr for each mouse. The average for the saline controls were slightly negative, and were recorded as zero in this graph. […] In addition, the high doses were approaching 1500 events more than the zero (control) values. […] For comparison, the 96hr samples were also hand counted and the number of MNs/1000 PCEs were determined.

| SMILES | Experimental (A96) (MN96 hr) ([1]; MMS 100 μg/g body weight IP at 0 and 48 hours, 96 hr blood, list mode) | Δ (A96 - T96), change in number of MNs ([1]; MMS 100 μg/g body weight IP at 0 and 48 hours, normalized with K, list mode) | clastogenic activity ([1]; MMS 100 μg/g body weight IP at t=0 and t=48 hours) | Mns (96 hr) [2] | ΔMns (T96 - T0) [2] | dose response ([3]; cyclophosphamide 50, 100, 150 or 200 μg/g body weight at t=0 and t=48 hrs) | clastogenic action at the lower doses ([3]; cyclophosphamide, lower doses, FIG. 14) | increase in MN events over zero (control) values ([3]; high doses of cyclophosphamide (50-200 μg/g body weight tested) at t=0 and t=48 hrs, one million total cells) |
| --- | --- | --- | --- | --- | --- | --- | --- | --- |
| COS(C)(=O)=O [MMS, methyl methanesulfonate] | 432 MNs/10,000 PCEs and 546 MNs/10,000 PCEs and 470 MNs/10,000 PCEs and 523 MNs/10,000 PCEs and 580 MNs/10,000 PCEs | 293 MNs/10,000 PCEs and 342 MNs/10,000 PCEs and 328 MNs/10,000 PCEs and 307 MNs/10,000 PCEs and 374 MNs/10,000 PCEs and 329 ± 32 MNs/10,000 PCEs and 329±28 MNs/10,000 PCEs | MMS exhibited clastogenic activity | 1416 MNs per 500,000 cells and 1394 MNs per 500,000 cells and 1282 MNs per 500,000 cells and 1535 MNs per 500,000 cells | 535 MNs per 500,000 cells and 563 MNs per 500,000 cells and 657 MNs per 500,000 cells and 399 MNs per 500,000 cells and 520 MNs per 500,000 cells and 535 ± 107 MNs per 500,000 cells |  |  |  |
| O=P1(N(CCCl)CCCl)NCCCO1 (centres unmarked) [cyclophosphamide] |  |  |  |  |  | dose response relationship is evident; also recorded: good dose response relationship is obtained | data at the lower doses clearly supports the conclusion that clastogenic action was present | ~1500 events |

— patent US5229265A, “Process for analyzing clastogenic agents” (Litron Laboratories, priority 1990, dated 1993)
